Usually EC50 stands for the concentration that produces a half-maximal response. A low value points to an effect from little substance.

For three compounds, EC50 results are on record in ChEMBL document CHEMBL2346544, “Design and synthesis of biotin- or alkyne-conjugated photoaffinity probes for studying the target molecules of PD 404182” (Bioorg Med Chem, 2013).

For the assay, the system named is Human immunodeficiency virus 1. Briefly: Antiviral activity against HIV1 3B infected in HeLa cells expressing CD4/CCR5/beta-Gal after 48 hrs by MAGI assay. Format: functional, organism-based. The conditions noted are these: Human immunodeficiency virus 1, 3B.

In turn, `C#CCOCc1ccc(C(=O)c2ccc(-c3ccc4c(c3)SC(=N)N3CCCN=C43)cc2)cc1` displayed a concentration for a half-maximal effect (EC50) of 0.64 µM.

For `N=C1Sc2cc(Br)ccc2C2=NCC3(CCN(C(=O)OCc4ccc(C(=O)c5ccc(COC(=O)NCCOCCOCCOCCNC(=O)CCCC[C@@H]6SC[C@@H]7NC(=O)N[C@@H]76)cc5)cc4)CC3)CN12`, the EC50 came to 5.11 µM.

Compound `N=C1Sc2cc(-c3ccc(C(=O)c4ccc(COC(=O)NCCOCCOCCOCCNC(=O)CCCC[C@@H]5SC[C@@H]6NC(=O)N[C@@H]65)cc4)cc3)ccc2C2=NCCCN12` displayed an EC50 of 6.87 µM.
